Results as given in article PMC4667193 (Scientific Reports, 2015).

Experiments:
[1] = system: rat primary hippocampal cell culture; test: total [^3H]inositol phosphate accumulation in hippocampal cells; assay type: cell-based; details: 10^−8 to 10^−3 M
Experimental: Hippocampal cells (1 × 10^6 cells/well) were allowed to equilibrate for 10 minutes with a nutrient solution of the following composition (mM): NaCl 157.00; KCl 5.60; CaCl2 0.27; MgCl2 3.00; NaHCO3 1.80; glucose 5.50 (pH 7.0–7.2) at 37 °C under constant shaking. Cells were incubated with 5 μCi of myo[^3H]inositol (specific activity 18.0 Ci/mmol) for 80 minutes, and lithium chloride (10 mM) for additional 30 minutes. Afterwards, the cells were incubated in the absence (basal level) and in the presence of carbachol (positive control) and AEME (10^−8 to 10^−3 M) for 10 minutes. Cells were removed from the plate using a 0.1 M NaOH solution and washed three times with nutrient solution, transferred to 2 mL of methanol:chloroform (2:1 v-v) at 4 °C and homogenized with a Ultra-Turrax T25 homogenizer at 9500 rpm. Chloroform (0.62 mL) and H2O (0.93 mL) were added to the homogenate, and the solution was centrifuged for 5 minutes at 1,000× g to separate aqueous and organic phases. Total [^3H]inositol phosphate was measured as previously described by Ascoli et al.[45] with slight modification. The aqueous layer was neutralized with 0.1 M HCl and then mixed with 1 mL anion-exchange resin (Dowex AG-X8, formate form, 200–400 mesh), allowed to equilibrate for 30 minutes at room temperature, under agitation, and centrifugated at 1,000× g, for 5 minutes at 4 °C. The resin was then washed sequentially, with 10 mM myo-inositol (2 mL) and 5 mM sodium tetraborate/60 mM sodium formate (2 mL). The resin was incubated for 30 minutes at room temperature with 2 mL of 0.1 M formic acid/1 M ammonium formate). The total [^3H]inositol phosphate was eluted and placed in scintillation vials containing OptiPhase HiSafe 3. The amount of radioactivity was determined in scintillation β-counter (LS 6500 IC, Beckman). Total [^3H]inositol phosphate was expressed as percentage above basal level.

Rat M1 mAChR = molecular target: T1, Rat M1 mAChR (Rattus norvegicus, UniProt P08482); test: [^3H]NMS radioligand competition binding, CHO cell membranes; details: rat M1, 0.1 nM [^3H]NMS
T1 construct: host or cells: CHO (CHO-K1) cells
T1 sequence (P08482 1-460): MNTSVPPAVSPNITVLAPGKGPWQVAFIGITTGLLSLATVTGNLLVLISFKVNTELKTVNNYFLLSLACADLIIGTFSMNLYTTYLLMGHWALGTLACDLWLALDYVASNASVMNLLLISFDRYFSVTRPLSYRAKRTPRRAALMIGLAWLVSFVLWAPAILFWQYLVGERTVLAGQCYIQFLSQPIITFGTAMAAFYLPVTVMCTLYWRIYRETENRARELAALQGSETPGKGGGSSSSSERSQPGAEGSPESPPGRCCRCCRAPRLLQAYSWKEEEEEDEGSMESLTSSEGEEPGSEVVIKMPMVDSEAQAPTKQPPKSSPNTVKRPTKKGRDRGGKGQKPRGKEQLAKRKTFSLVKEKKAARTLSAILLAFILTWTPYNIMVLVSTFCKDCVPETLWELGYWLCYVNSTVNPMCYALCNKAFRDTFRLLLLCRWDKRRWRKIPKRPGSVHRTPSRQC
Experimental: (§1) Membranes were prepared from CHO cells stably expressing individual rat mAChRs (rM1 to rM5). Briefly, media was removed, cells were washed with PBS and harvested with PBS into a centrifuge bottle. Cells were spun at 2,000 g for 5 minutes at 4 °C. After harvesting, the supernatant was gently discarded and cold membrane preparation buffer [Hanks’ balanced salt solution (HBSS; Invitrogen), 4.17 mM sodium bicarbonate, 20 mM HEPES and 0.5 mM EDTA] was added (10 mL/dish). Cells were then homogenized for 5–10 seconds with a rotary homogenizer (Polytron®) and centrifuged at 20,000g for 20 minutes at 4 °C. The homogenization/centrifugation cycle was repeated twice. After the last centrifugation, the supernatant was gently discarded and the pellet was resuspended in cold membrane preparation buffer (up to 2 mL). All binding reactions were performed in a total volume of 1 mL containing 25 μg of membrane protein. […] The equilibrium binding was terminated by rapid filtration using a 96-well harvester (Brandel®). Filters were washed three times with ice-cold harvesting buffer and were dried overnight. Radioactivity was counted using a TopCount NXT (PerkinElmer®) and counts were normalized to the maximal specific binding in the presence of vehicle. Saturation and competition binding data were analyzed using a weighted nonlinear least-squares interactive curve-fitting program GraphPad Prism (GraphPad Prism Software version 5.0). A mathematical model for one or two binding sites was applied. The equilibrium dissociation constant (KD) and the binding capacity (Bmax) were determined. The inhibition constant (Ki) was determined from competition curves using the Cheng and Prusoff equation[52].

Rat M2 mAChR = molecular target: T2, Rat M2 mAChR (Rattus norvegicus, UniProt P10980); test: as above; details: rat M2, 0.1 nM [^3H]NMS
T2 construct: host or cells: CHO (CHO-K1) cells
T2 sequence (P10980 1-466): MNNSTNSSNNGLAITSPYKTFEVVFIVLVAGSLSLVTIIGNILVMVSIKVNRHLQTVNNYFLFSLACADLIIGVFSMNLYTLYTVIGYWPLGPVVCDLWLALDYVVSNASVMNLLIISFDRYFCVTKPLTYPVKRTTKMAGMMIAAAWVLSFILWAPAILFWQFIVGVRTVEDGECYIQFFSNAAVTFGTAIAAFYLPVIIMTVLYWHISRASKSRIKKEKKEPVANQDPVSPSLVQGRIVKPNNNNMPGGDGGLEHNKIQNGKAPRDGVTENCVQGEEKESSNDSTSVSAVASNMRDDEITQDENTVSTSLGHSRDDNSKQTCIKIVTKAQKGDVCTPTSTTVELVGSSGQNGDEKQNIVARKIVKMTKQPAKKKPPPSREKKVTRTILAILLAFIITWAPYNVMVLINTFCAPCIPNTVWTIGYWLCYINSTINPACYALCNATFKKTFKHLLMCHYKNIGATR
Experimental: as §1

Rat M3 mAChR = molecular target: T3, Rat M3 mAChR (Rattus norvegicus, UniProt P08483); test: as above; details: rat M3, 0.1 nM [^3H]NMS
T3 construct: host or cells: CHO (CHO-K1) cells
T3 sequence (P08483 whole entry): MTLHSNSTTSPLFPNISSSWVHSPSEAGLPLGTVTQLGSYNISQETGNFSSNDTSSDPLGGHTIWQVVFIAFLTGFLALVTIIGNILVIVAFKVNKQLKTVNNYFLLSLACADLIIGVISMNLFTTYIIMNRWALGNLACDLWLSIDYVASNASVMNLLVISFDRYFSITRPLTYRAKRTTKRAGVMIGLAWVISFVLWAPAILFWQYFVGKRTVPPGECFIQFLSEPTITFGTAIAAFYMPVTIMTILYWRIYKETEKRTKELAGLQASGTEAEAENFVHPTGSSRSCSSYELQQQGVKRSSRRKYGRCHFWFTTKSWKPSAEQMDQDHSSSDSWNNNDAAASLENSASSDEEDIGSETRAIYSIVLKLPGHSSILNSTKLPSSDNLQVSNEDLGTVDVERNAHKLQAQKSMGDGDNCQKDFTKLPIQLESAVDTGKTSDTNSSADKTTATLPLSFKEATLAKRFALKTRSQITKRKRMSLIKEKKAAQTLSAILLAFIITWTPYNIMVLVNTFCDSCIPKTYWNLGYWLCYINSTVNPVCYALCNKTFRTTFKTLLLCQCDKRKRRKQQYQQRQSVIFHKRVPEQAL
Experimental: as §1

SMILES: COC(=O)C1=CC[C@@H]2CC[C@H]1N2C [AEME, anhydroecgonine methyl ester]
- effect on total [^3H]inositol phosphate [1]: concentration-dependent increase
- concentration giving maximum inositol phosphate accumulation ([1]; 10 minutes): 10^−5 M
- Ki (Rat M1 mAChR): 25.7 µM
- Ki (Rat M2 mAChR): 19.5 µM
- Ki (Rat M3 mAChR): 33.9 µM
